≈ marks a conversion by molar mass, not a printed value. Like-named read-outs stand apart in the source and are kept apart here.
Experiments:
[1] = In vivo pharmacokinetic study, intravenous administration; parameters: species or system rabbit; conditions: rabbits, IV of 4.8 mg/kg SR-FP, enantiomer measured in plasma
Protocol: A certain amount of FP was dissolved in a mixed solution of sterile water and Tween-80 at 2.0 mg/mL. The fresh intravenous solution was prepared just before intravenous administration.
Six male rabbits weighing 2.5 kg were selected for IV. A capacity of 4.8 mg/kg FP (0.2 g FP was dissolved in a mixed solution of pure water and Tween80) was administered to the one ear vein of rabbit, the other ear vein of rabbit was phlebotomized about 0.5 mL at 5, 10, 15, 30 min and 1, 2, 3, 4, 6, 8, 10, 12 h. The blood samples were centrifuged at 4000 rpm for 10 min and kept at –80 °C.
(§1) After being thawed and equilibrated to room temperature, an aliquot (100 μL) of plasma sample was spiked with […] (10 μL) of 40.0 μg/mL and 400 μL methanol. The samples were vortexed for 5 min and followed by centrifugation at 16,000 rpm for 10 min at 25 °C. After centrifugation, the supernatant was transferred to a clean tube and evaporated to dryness at 40 °C under a gentle stream of nitrogen. The dried samples were reconstituted with 100 μL mobile phase, vortexed and centrifuged before analysis.
(§2) Pharmacokinetic parameters were calculated using WinNonlin® software (Pharsight Corporation, San Diego, CA, USA) based on noncompartmental model, including the maximal plasma drug concentration (Cmax), the time to reach Cmax (Tmax) which were obtained from the observed data, the area under the time–concentration curve from time 0 to time t (AUC0–t) of distribution which was calculated using the linear trapezoidal rule, the mean residence time (MRT), the plasma clearance (Cl) and the apparent volume(V). Enhancement factor (Ef) was calculated from the following equation: Ef=AUC0−t(with enhancer)/AUC0−t(without enhancer)
The concentrations of drugs in the receptor medium or rabbit plasma were determined using a validated HPLC method. The HPLC system was equipped with a Shimadzu HPLC apparatus, including an LC-20AT pump, a SIL20A syringe, an SPD-20A detector, and a CTO-20A column oven. The propylparaben was used as an internal standard, and the flow rate of chromatographic analysis was set 1.0 mL/min. For in vitro analysis of SR-FP, thermo (USA) C18 column (150 mm × 4.6 mm, 5 μm particle) maintained at 40 °C was used to elute SR-FP, the mobile phase was used methanol and 1% aqueous glacial acetic acid (60:40, v/v) and the wavelength was set at 247 nm. The HPLC conditions of S-FP and R-FP were as follows: The column was CHIRALPAK®IA (4.6 mm × 250 mml, 5 μm particle diameter) of DAOCEL (Shanghai, China). The mobile phase consisted of acetonitrile and trifluoroacetic acid (0.05%, 50:50, v/v), the wavelength was set at 254 nm. […]

[2] = Determination of drug solubility; type: physicochemical; conditions: pure water, 25 °C; for solubility: 48 h
Protocol: The excess SR-FP or its single enantiomer (0.01 g) were sealed to 10 mL of pure water at 25 °C in glass vials and waved for 48 h in constant temperature air bath oscillator […]. Finally, the contents were passed through the 0.45 μm microporous membrane and centrifuged at 10,000 rpm for 5 min, then aliquots for the supernatant saturated solution were diluted and analyzed by HPLC. The experiments were performed in triplicate.

[3] = Determination of drug oil-water partition coefficient (log P); type: physicochemical; conditions: n-octanol/water, 25 °C
Protocol: The same volume of water and n-octanol were mixed and shaken for 24 h at 25 °C, then the equal of water saturated n-octanol solution and n-octanol saturated aqueous solution through liquid-separation were obtained. The SR-FP or its single enantiomer (0.001 g) were added in the saturated solution, which were mixed to the ratio of 1:4, then shook for 24–48 h followed by stand for 24 h. (The shakings were in constant temperature air bath oscillator at 25 °C). Afterwards, the HPLC method was utilized to detect the concentration of the substance in the oil phase and the water phase.

[4] = In vitro permeation experiment of FP drug-in-adhesive patches in two-chamber diffusion cells; type: in vitro ADME, rabbit
Excerpt: Male, Japanese big-eared rabbits weighting 2.5–3.0 kg were purchased from the animal experimental center of North China University of Science and Technology. The experimental process was in accordance with the ‘Ethical Guide for Laboratory Animal Investigation’ and was approved by the Animal Experimental Center Committee of North China University of Science and Technology. All efforts were made to minimize animal suffering and to limit the number of animals used.
The hair of back skin was removed by clipper and electrical shaver carefully when the rabbits were anesthetized with ether. Full thickness of back skin was excised after the rabbit was sacrificed by injecting air into the ear veins, and the subcutaneous fat tissue was carefully removed using the surgical scissor and scalpel. The integrity of the skin was confirmed by microscopic observation method. The treated rabbit skin was cut into a size of 1.5 cm × 1.5 cm and stored at –80 °C until use. Before use, it needed to be immersed in physiological saline for 20 min to thaw.
Drug-in-adhesive patch (drug loading of 5% by adhesive) was prepared by using solvent evaporation method. An appropriate amount of FP was dissolved in a suitable amount of ethyl acetate, which was later added to the adhesive and mixed thoroughly with a mechanical stirrer. The resulting solution was coated onto release liner (Scotch Pak® 9744, 3M, USA) by using lab coating unit (6025, BLD Instruments Co. Ltd., Guangdong, China). The coated laminate was dried at 50 °C for 15 min. After the solvent had been removed, it was covered with backing laminate (Scotch Pak® 9732, 3M).
Modified two-chamber diffusion cells with an effective diffusion area of 0.95 cm^2 were employed in the in vitro permeation experiment. The cells were kept at 32 °C by the circulated water bath and stirred with magnetic bars at 400 rpm. The dermis side of the skin was attached to one-half of the side-by-side diffusion cells, the FP patch was pressed on the skin with the adhesive side facing the SC, and pH 7.4 PBS was used as the receptor medium. At predetermined time points (2, 4, 6, 8, 10, 12 and 24 h), the receptor solution of 2.0 mL was withdrawn and equal volume PBS was added to maintain a constant volume of receptor solution.
The cumulative amount of each drug permeating per unit area (Q) versus time was plotted. Q24h=(3.5Ci+2.0∑i=1n−1Ci−1)/A
Q was the cumulative skin permeation amount. Ci was the concentration in the receiver compartment at time i, A was the effective diffusion area of diffusion.
The steady-state flux (Js, µg/cm^2/h) was calculated from the slope of linear region of the plot. The lag-time was determined by extrapolating the linear portion of the curve to the abscissa. Js=dQr/Adt
Enhancement ratio (ER) was used to evaluate the activity of the enhancers, which is the ratio of Q24h with enhancer to Q24h without enhancer. ER=Q24h(with enhancer)/Q24h(without enhancer)

[5] = In vivo pharmacokinetic study, transdermal patch administration; parameters: species or system rabbit; conditions: rabbits, patch loaded with individual enantiomer, plasma (Figure 2(F))
Protocol: Thirty-six male rabbits weighing 2.5 kg were divided into six groups, and the back skin was intact without erythema. For patch administration studies, patches without or with enhancers (120 mg/kg) were stuck to the shaved area of the rabbits. They were administered as follows: (1) control group: only the SR-FP; (2) enhancer group A: prepared SR-FP patch with 5% d-4-TER; (3) enhancer group B: prepared SR-FP patch with 5% d-4-T-dC18; (4) enhancer group C: prepared SR-FP patch with 5% l-4-T-dC18; (5) enhancer group D: prepared S-FP patch with 5% d-4-T-dC18; (6) enhancer group E: prepared R-FP patch with 5% d-4-T-dC18. In order to prevent the patches fallen off, gauze and medical tape were used to fix the patches. The blood from ear vein of rabbit was collected 0.5 mL at 0.5, 1, 2, 4, 6, 8, 12, 16, 20, 24, 26, 28, 30, 32, 36 and 48 h, and the patch was removed after 24 h, then the residual drug was wiped with physiological saline. The sample was processed by the same method as IV. All animal studies were carried out in accordance with the NIH Guidelines for the Care and Use of Laboratory Animals and were also approved by the Life Science Research Center of North China University of Science and Technology.
as §1, §2
The concentrations of drugs in the receptor medium or rabbit plasma were determined using a validated HPLC method. The HPLC system was equipped with a Shimadzu HPLC apparatus, including an LC-20AT pump, a SIL20A syringe, an SPD-20A detector, and a CTO-20A column oven. The propylparaben was used as an internal standard, and the flow rate of chromatographic analysis was set 1.0 mL/min. For in vitro analysis of SR-FP, thermo (USA) C18 column (150 mm × 4.6 mm, 5 μm particle) maintained at 40 °C was used to elute SR-FP, the mobile phase was used methanol and 1% aqueous glacial acetic acid (60:40, v/v) and the wavelength was set at 247 nm. The HPLC conditions of S-FP and R-FP were as follows: The column was CHIRALPAK®IA (4.6 mm × 250 mml, 5 μm particle diameter) of DAOCEL (Shanghai, China). The mobile phase consisted of acetonitrile and trifluoroacetic acid (0.05%, 50:50, v/v), the wavelength was set at 254 nm. For in vivo analysis of S-FP and R-FP, the mobile phase consisted of acetonitrile and trifluoroacetic acid (0.05%, 35:65, v/v), and other conditions were the same to in vitro analysis.
Absolute bioavailability (F) was calculated by the following equation: F=AUCpatch·Dosei.v./AUCi.v.·Dosepatch

| Structure (SMILES) | Cl [1] [L/h] | MRT [1] [h] | solubility [2] [µg/mL] | logP [3] | Tlag of R-FP ([4]; permeant R-FP, patch 5% drug (w/w), enhancer equimolar to 5% 4-TER (control: no enhancer)) [h] | Js of R-FP ([4]; permeant R-FP, patch 5% drug (w/w), enhancer equimolar to 5% 4-TER (control: no enhancer), mean ± SD, n = 4) [μg/cm^2/h] | chiral inversion to the other enantiomer in vivo [5] | Tlag of S-FP ([4]; permeant S-FP, patch 5% drug (w/w), enhancer equimolar to 5% 4-TER (control: no enhancer)) [h] | Js of S-FP ([4]; permeant S-FP, patch 5% drug (w/w), enhancer equimolar to 5% 4-TER (control: no enhancer), mean ± SD, n = 4) [μg/cm^2/h] | solubility at 48 h [2] [µg/mL] | logP ([3]; read-out: logP) | cumulative transport of SR-FP at 24 h ([4]; 0% enhancer level (w/w)) [μg/cm^2] | Tlag of SR-FP ([4]; permeant SR-FP, patch 5% drug (w/w), enhancer equimolar to 5% 4-TER (control: no enhancer)) [h] | Js of SR-FP ([4]; permeant SR-FP, patch 5% drug (w/w), enhancer equimolar to 5% 4-TER (control: no enhancer), mean ± SD, n = 4) [μg/cm^2/h] |
| --- | --- | --- | --- | --- | --- | --- | --- | --- | --- | --- | --- | --- | --- | --- |
| C[C@@H](C(=O)O)c1ccc(-c2ccccc2)c(F)c1 [R-FP] | 0.52 ± 0.03 | 1.84 ± 0.15 | 49.82 ± 1.31 (≈ 204 µM) | 1.83 ± 0.09 | 2.43 | 2.43 ± 0.18 | S-FP could be detected | – | – | – | – | – | – | – |
| C[C@H](C(=O)O)c1ccc(-c2ccccc2)c(F)c1 [S-FP] | 0.30 ± 0.02 | 2.04 ± 0.23 | 46.39 ± 4.30 (≈ 190 µM) | 1.86 ± 0.05 | – | – | had not been observed | 3.82 | 2.65 ± 0.29 | – | – | – | – | – |
| CC(C(=O)O)c1ccc(-c2ccccc2)c(F)c1 (stereo not shown) [SR-FP, Flurbiprofen] | – | – | – | – | – | – | – | – | – | 89.1 ± 5.48 (≈ 365 µM) | 2.28 ± 0.04 | 122.93 ± 8.02 | 3.31 | 5.54 ± 0.37 |

Reference: PMC7269032, “Chiral 4-O-acylterpineol as transdermal permeation enhancers: insights of the enhancement mechanisms of a transdermal enantioselective delivery system for flurbiprofen” (Drug Delivery, 2020)
